{"source": "patent US6271205A", "about": "“Cancer treatment by expression of differentiation factor receptor” (University of Massachusetts Medical Center, priority 1997, dated 2001)", "test_system": "C6 rat glioma cells", "assay": "Induction of cell cycle arrest in C6 cells with aphidicolin", "format": "cell-based", "details": "0.3 μM aphidicolin, 5 days", "description": "SH-SY5Y cells were grown at 37° C. in RPMI 1640 medium (GIBCO BRL, Gaithersburg, Md.) supplemented with 10% fetal bovine serum (Sigma Chemicals, St. Louis, Mo.) and 100 μg/ml of gentamicin. For differentiation studies, cells were plated (1.5×10^5 to 5×10^5 cells/dish) in 35-mm Primaria dishes (Falcon, Franklin Lakes, N.J.). One hundred ng/ml NGF (2.5 S; Bioproducts for Science, Indianapolis, Ind.) and/or 0.3 μM aphidicolin (Sigma Chemicals, St. Louis, Mo.) were added every 2-3 days. Cell proliferation was assessed by BrdU labeling, as described by LoPresti et al. (Cell Growth Diff. (1992) 3:627-635).\n0.3 μM aphidicolin (Sigma, St. Louis Mo.) was added to logarithmically growing C6 rat glioma cells (ATCC, CCL 107, Rockville, Md.) in MEM medium supplemented with 10% fetal bovine serum (Sigma, St. Louis, Mo.). After 5 days incubation, growth arrested cells were removed with trypsin and 2.0×10^4 cells were seeded on polyornithine coated coverslips (polyornithine hydrobromide, Sigma) containing aphidicolin supplemented media for another five days in 24-well plates. Coverslips were then fixed in either methanol (10 minutes at -20° C.) or 4% paraformaldehyde (20 minutes at room temperature) for immunohistochemical analysis.\nLess than 5% of cells were stained to any extent with antibodies to GFAP, medium and heavy chain neurofilament (SMI-312) or MAP-2. […]"}
{"smiles": "C[C@@]1(CO)[C@H](O)CC[C@@]2(C)[C@H]1CC[C@H]1C[C@@H]3C[C@@]12CC[C@]3(O)CO", "note": "[aphidicolin]", "values": [{"measurement": "cells extending branched complex neurite-like processes", "result": 48, "unit": "%"}, {"measurement": "BrDU labeling (proliferation)", "setting": "MEM + 10% FBS, untreated cells 52%", "result": 7.2, "unit": "%"}]}
